± gives the expanded uncertainty stated by the source. Blank lines part the entries; values can stand above or below the compound they belong to.
Assays:
[1] = Liquid, Ebulliometric method (Recirculating still)
[2] = refractive index (Na D-line) (dimensionless); conditions: 298.15 K; 101.3 kPa; Liquid; Standard Abbe refractometry

vapor or sublimation pressure ([1]; 404.05 K): 101.33 ± 1 kPa
refractive index [2]: 1.4042 ± 0.0004
SMILES: CC(C)CCO [3-methylbutan-1-ol]

vapor or sublimation pressure ([1]; 463.93 K): 101.33 ± 1 kPa
refractive index [2]: 1.4779 ± 0.0004
SMILES: C[S+](C)[O-] [dimethyl sulfoxide]

Continued, compound first:

SMILES: CC(=O)OCCC(C)C [3-methylbutyl ethanoate]
vapor or sublimation pressure ([1]; 415.19 K): 101.33 ± 1 kPa
refractive index [2]: 1.3977 ± 0.0004

SMILES: c1ccccc1 [benzene]
vapor or sublimation pressure ([1]; 353.27 K): 101.33 ± 1 kPa

SMILES: Cc1ccccc1 [toluene]
vapor or sublimation pressure ([1]; 383.82 K): 101.33 ± 1 kPa

— the NIST ThermoML archive (doi:10.1021/acs.jced.6b00733)
